According to patent US7345091B2, “Carotenoid ether analogs or derivatives for the inhibition and amelioration of disease” (Cardax Pharmaceuticals, Inc., priority 2002, dated 2008):
Counter-ions that a name gives are not always drawn.

Columns and labels:
[1] = Determination of water solubility; format: physicochemical
Experimental: A total of 30 mg of sample (disodium disuccinate astaxanthin derivative, as the all-trans mixture of stereoisomers 3S,3′S, meso, and 3R,3′R in a 1:2:1 ratio) was added to 2 mL of sterile-filtered ([…] Millipore®) deionized (DI) water in a 15 mL glass centrifuge tube. The tube was wrapped in aluminum foil and the mixture was shaken for 2 hours, then centrifuged at 3500 rpm for 10 minutes. The aqueous solution was filtered through a 0.45 micron PVDF disposable filter device. A 1 mL volume of filtrate was then diluted appropriately with DI water, and the concentration of the solution was measured at 480 nm using a four point calibration curve prepared from fresh sample.

[2] = system: male New Zealand white rabbits; experiment: Experimental infarct size after parenteral administration; format: in vivo, rabbit
Description: The influence of parenteral administration of the disodium disuccinate astaxanthin derivative (XVI) on induced infarct size and induced levels of circulating C-reactive protein (CRP) in rabbits was investigated using the methods of Barrett et al. (2002) with slight modifications. The purpose of the current study was to investigate the ability of the disodium disuccinate astaxanthin derivative (XVI) to reduce inflammation as measured by CRP in the setting of experimental myocardial ischemia-reperfusion injury in the rabbit heart. […] Therefore, reduction of circulating CRP levels, together with the reduction(s) in infarct size previously noted with Cardax™ in rodents, would form a powerful anti-inflammatory therapeutic modality in the acute coronary syndrome setting.
In brief, male New Zealand white rabbits (2.25-2.5 kg) were used for the study. The acute phase inflammatory response was induced by subcutaneous injection of four aliquots (0.5 mL each) of 1% croton oil in corn oil beginning on the second day of pre-treatment with Cardax™. […]
At the completion of the reperfusion phase of the protocol, the hearts were removed and cannulated by the aorta on the Langendorff perfusion apparatus. […] Total area at risk was expressed as a percentage of the left ventricle. Infarct size was then expressed as a percentage of area at risk.

[3] = Single dose oral plasma pharmacokinetics; format: in vivo, male C57BL/6 mice; details: free astaxanthin, single 500 mg/kg oral dose
Experimental: Single dose oral pharmacokinetic parameters (including Cmax, Tmax, AUC(0-72) Vd, and clearance) of the disodium disuccinate astaxanthin derivative XVI were determined in male C57BL/6 mice. The animals were administered the derivative orally at a single maximum dose (500 mg/kg) shown in prior studies to likely be efficacious in preventing the injury secondary to CCl4-administration in Sprague-Dawley rats (100 mg/kg body weight in those studies). Samples for HPLC analysis of levels of free astaxanthin in plasma and liver were obtained at the following time points, from at least 3 animals per time point: Time 0 [Immediately Before Dosing of Test Compound], 2, 4, 6, 8, 12, 16, 24, 48, and 72 Hours After Ingestion. Additional samples, with N<3, were taken at other intervals (10, 14, and 36 hours; Tables 2 and 3). Non-esterified, free astaxanthin levels were determined in this study as carotenoid esters are completely cleaved in the mammalian gut to free carotenoid, which moves passively across the enterocyte. 5 Male C57BL/6 mice, approximately 25 g, were housed in cages (three mice/cage) and fed standard mouse chow (Purina Mouse Chow, Ralston Purina, St. Louis) and water ad libitum for at least five days prior to the start of the experiment. […]

solubility at 2 h ([1]; deionized water, water, thermodynamic from solid, pure aqueous formulation): 8.64 mg/mL
increase in solubility in the dosing vehicle ([1]; emulsion vs pure aqueous formulation): 6 fold
solubility ([1]; olive oil/water/soybean lecithin emulsion, aqueous with cosolvent or surfactant or cyclodextrin, olive oil/water/soybean lecithin emulsion for oral gavage): ~50 mg/mL
water solubility ([1]; pure aqueous formulation): approximately 8.64 mg/mL
Oral clearance [3]: 216.822 L/h
SMILES: CC1=C(/C=C/C(C)=C/C=C/C(C)=C/C=C/C=C(C)/C=C/C=C(C)/C=C/C2=C(C)C(=O)C(OC(=O)CCC(=O)O)CC2(C)C)C(C)(C)CC(OC(=O)CCC(=O)O)C1=O (racemic) [XVI, Disodium Salt of the Disuccinic Acid Ester of Astaxanthin]
reductions in infarct size ([2]; 50 mg/kg IV once per day for 4 days, 30 min occlusion / 180 min reperfusion): approximately 55.4%
increase in infarct size reduction in rabbit vs rodents ([2]; same dose and identical pre-treatment schedule): 38%
